Experimental data from PMC9475448, “What a difference a methylene makes: replacing Glu with Asp or Aad in the Lys-urea-Glu pharmacophore of PSMA-targeting radioligands to reduce kidney and salivary gland uptake” (Theranostics, 2022).

How the values were obtained:
LNCaP tumor-bearing mice [1] = test: Radioligand therapy study in LNCaP tumor-bearing NRG mice
[2] = system: LNCaP tumor and major mouse organs/tissues; test: Radiation dosimetry calculation with OLINDA software from biodistribution data; details: 25-g mouse
Text: The biodistribution data (available in the Supplemental Table s 5- 6) were used to determine the kinetics input values required by OLINDA. First, each of the values was decayed to its corresponding time point (the values on the table are shown at injection time). Then the different time-points of the uptake data (%IA/g) for each organ were fitted to both mono- exponential ( ) and bi-exponential ( ) functions using in-house software developed in Python. The best fit was selected based on maximizing the coefficient of determination (R2) of the fit and minimizing the residuals. The areas under the curves were analytically calculated based on the parameters obtained from the best fit of each organ and this provided the kinetic input values required by OLINDA.
In the mouse case, the adrenals, blood, fat, and muscle are not modeled in the phantom. These organs were grouped together and included in what OLINDA calls the remainder of the body .
Lastly, the numbers of decays in the tumors were also calculated based on the biodistribution data of the mice and the values were inputted into the sphere model available in OLINDA.

LNCaP tumor-bearing mice [3] = test: Ex vivo biodistribution of 177Lu-labeled ligands in LNCaP tumor-bearing NRG mice
[4] = 1 h post-injection, listed as [177Lu]Lu-HTK03149
[5] = 4 h post-injection, listed as [177Lu]Lu-HTK03149

**Q.** How did the Median survival (LNCaP tumor-bearing mice [1]; 9.3 MBq injected) turn out when `O=C([O-])CN1CCN(CC(=O)[O-])CCN(CC(=O)NCC2CCC(C(=O)NC(Cc3c4ccccc4cc4ccccc34)C(=O)NCCCCC(NC(=O)NC(CCCC(=O)O)C(=O)O)C(=O)O)CC2)CCN(CC(=O)[O-])CC1.[177Lu+3]` (centres unmarked) [[^177Lu]Lu-HTK03149] was run?
**A.** 52 days

**Q.** And the Median survival (LNCaP tumor-bearing mice [1]; 18.5 MBq injected)?
**A.** 63 days

**Q.** What about the Median survival (LNCaP tumor-bearing mice [1]; 37 MBq injected) of the same molecule?
**A.** 88 days

**Q.** And the Median survival (LNCaP tumor-bearing mice [1]; 74 MBq injected)?
**A.** 142 days

**Q.** What about the Median survival (LNCaP tumor-bearing mice [1]; 148 MBq injected) of the same molecule?
**A.** >180 days

**Q.** What about the “Weight loss of treated mice” value (LNCaP tumor-bearing mice [1]; injected radioactivity as high as 148 MBq) of the same molecule?
**A.** did not observe any weight loss

**Q.** What about the Kinetics value ([2]; source organ Brain) of the same molecule?
**A.** 2.23E-03 MBq-h/MBq

**Q.** What about the Kinetics value ([2]; source organ Cortical bone) of the same molecule?
**A.** 7.60E-02 MBq-h/MBq

**Q.** What about the Kinetics value ([2]; source organ Heart contents) of the same molecule?
**A.** 1.94E-02 MBq-h/MBq

**Q.** What about the Kinetics value ([2]; source organ Kidneys) of the same molecule?
**A.** 2.41E-01 MBq-h/MBq

**Q.** And the Kinetics value ([2]; source organ Large intestine)?
**A.** 9.24E-02 MBq-h/MBq

**Q.** And the Kinetics value ([2]; source organ Liver)?
**A.** 3.91E-01 MBq-h/MBq

**Q.** What about the Kinetics value ([2]; source organ Lungs) of the same molecule?
**A.** 1.72E-02 MBq-h/MBq

**Q.** And the Kinetics value ([2]; source organ Pancreas)?
**A.** 1.79E-02 MBq-h/MBq

**Q.** What about the Kinetics value ([2]; source organ Remainder of the body) of the same molecule?
**A.** 5.31E-01 MBq-h/MBq

**Q.** And the Kinetics value ([2]; source organ Small intestine)?
**A.** 2.76E-01 MBq-h/MBq

**Q.** And the Kinetics value ([2]; source organ Spleen)?
**A.** 2.30E-02 MBq-h/MBq

**Q.** What about the Kinetics value ([2]; source organ Stomach) of the same molecule?
**A.** 8.07E-03 MBq-h/MBq

**Q.** What about the Kinetics value ([2]; source organ Testes) of the same molecule?
**A.** 1.29E-02 MBq-h/MBq

**Q.** What about the Kinetics value ([2]; source organ Thyroid) of the same molecule?
**A.** 2.03E-03 MBq-h/MBq

**Q.** What about the Kinetics value ([2]; source organ Urinary bladder contents) of the same molecule?
**A.** 8.14E-01 MBq-h/MBq

**Q.** What about the Adrenal glands uptake (LNCaP tumor-bearing mice [3]; 1 h post-injection) of the same molecule?
**A.** 0.352 ± 0.071 %IA/g

**Q.** And the Blood uptake (LNCaP tumor-bearing mice [3]; 1 h post-injection)?
**A.** 0.876 ± 0.073 %IA/g

**Q.** And the “Blood:Salivary gland uptake ratio” value (LNCaP tumor-bearing mice [3]; 1 h post-injection)?
**A.** 3.98 ± 0.65

**Q.** And the Bone uptake (LNCaP tumor-bearing mice [3]; 1 h post-injection)?
**A.** 0.072 ± 0.020 %IA/g

**Q.** What about the Brain uptake (LNCaP tumor-bearing mice [3]; 1 h post-injection) of the same molecule?
**A.** 0.022 ± 0.002 %IA/g

**Q.** What about the Fat uptake (LNCaP tumor-bearing mice [3]; 1 h post-injection) of the same molecule?
**A.** 0.136 ± 0.049 %IA/g

**Q.** And the Heart uptake (LNCaP tumor-bearing mice [3]; 1 h post-injection)?
**A.** 0.281 ± 0.036 %IA/g

**Q.** What about the Intestines uptake (LNCaP tumor-bearing mice [3]; 1 h post-injection) of the same molecule?
**A.** 0.267 ± 0.063 %IA/g

**Q.** And the Kidneys uptake (LNCaP tumor-bearing mice [3]; 1 h post-injection)?
**A.** 7.67±1.35 %IA/g

**Q.** What about the Lacrimal glands uptake (LNCaP tumor-bearing mice [3]; 1 h post-injection) of the same molecule?
**A.** 0.022 ± 0.006 %IA/g

**Q.** What about the Liver uptake (LNCaP tumor-bearing mice [3]; 1 h post-injection) of the same molecule?
**A.** 0.264 ± 0.031 %IA/g

**Q.** And the Lungs uptake (LNCaP tumor-bearing mice [3]; 1 h post-injection)?
**A.** 0.721 ± 0.056 %IA/g

**Q.** And the Muscle uptake (LNCaP tumor-bearing mice [3]; 1 h post-injection)?
**A.** 0.182 ± 0.138 %IA/g

**Q.** What about the Pancreas uptake (LNCaP tumor-bearing mice [3]; 1 h post-injection) of the same molecule?
**A.** 0.165 ± 0.028 %IA/g

**Q.** And the Salivary glands uptake (LNCaP tumor-bearing mice [3]; 1 h post-injection)?
**A.** 0.23±0.06 %IA/g

**Q.** And the Spleen uptake (LNCaP tumor-bearing mice [3]; 1 h post-injection)?
**A.** 0.260 ± 0.045 %IA/g

**Q.** And the Stomach uptake (LNCaP tumor-bearing mice [3]; 1 h post-injection)?
**A.** 0.096 ± 0.020 %IA/g

**Q.** And the Testes uptake (LNCaP tumor-bearing mice [3]; 1 h post-injection)?
**A.** 0.255 ± 0.019 %IA/g

**Q.** What about the Thyroid uptake (LNCaP tumor-bearing mice [3]; 1 h post-injection) of the same molecule?
**A.** 0.269 ± 0.021 %IA/g

**Q.** What about the Tumor uptake (LNCaP tumor-bearing mice [3]; 1 h post-injection) of the same molecule?
**A.** 13.96 ± 2.155 %IA/g

**Q.** And the “Tumor:Blood uptake ratio” value (LNCaP tumor-bearing mice [3]; 1 h post-injection)?
**A.** 16.0 ± 2.44

**Q.** What about the “Tumor:Muscle uptake ratio” value (LNCaP tumor-bearing mice [3]; 1 h post-injection) of the same molecule?
**A.** 101 ± 48.3

**Q.** What about the “Tumor:Salivary gland uptake ratio” value (LNCaP tumor-bearing mice [3]; 1 h post-injection) of the same molecule?
**A.** 63.4 ± 13.6

**Q.** And the Kidneys uptake (LNCaP tumor-bearing mice [3]; [4])?
**A.** 7.672 ± 1.346 %IA/g

**Q.** What about the Salivary glands uptake (LNCaP tumor-bearing mice [3]; [4]) of the same molecule?
**A.** 0.227 ± 0.062 %IA/g

**Q.** And the Adrenal glands uptake (LNCaP tumor-bearing mice [3]; 4 h post-injection)?
**A.** 0.085 ± 0.007 %IA/g

**Q.** What about the Blood uptake (LNCaP tumor-bearing mice [3]; 4 h post-injection) of the same molecule?
**A.** 0.167 ± 0.033 %IA/g

**Q.** And the “Blood:Salivary gland uptake ratio” value (LNCaP tumor-bearing mice [3]; 4 h post-injection)?
**A.** 3.32 ± 0.59

**Q.** And the Bone uptake (LNCaP tumor-bearing mice [3]; 4 h post-injection)?
**A.** 0.016 ± 0.010 %IA/g

**Q.** What about the Brain uptake (LNCaP tumor-bearing mice [3]; 4 h post-injection) of the same molecule?
**A.** 0.010 ± 0.001 %IA/g

**Q.** What about the Fat uptake (LNCaP tumor-bearing mice [3]; 4 h post-injection) of the same molecule?
**A.** 0.021 ± 0.003 %IA/g

**Q.** And the Heart uptake (LNCaP tumor-bearing mice [3]; 4 h post-injection)?
**A.** 0.070 ± 0.013 %IA/g

**Q.** And the Intestines uptake (LNCaP tumor-bearing mice [3]; 4 h post-injection)?
**A.** 0.185 ± 0.067 %IA/g

**Q.** What about the Kidneys uptake (LNCaP tumor-bearing mice [3]; 4 h post-injection) of the same molecule?
**A.** 1.67±0.38 %IA/g

**Q.** And the Lacrimal glands uptake (LNCaP tumor-bearing mice [3]; 4 h post-injection)?
**A.** 0.029 ± 0.014 %IA/g

**Q.** What about the Liver uptake (LNCaP tumor-bearing mice [3]; 4 h post-injection) of the same molecule?
**A.** 0.108 ± 0.010 %IA/g

**Q.** And the Lungs uptake (LNCaP tumor-bearing mice [3]; 4 h post-injection)?
**A.** 0.169 ± 0.012 %IA/g

**Q.** What about the Muscle uptake (LNCaP tumor-bearing mice [3]; 4 h post-injection) of the same molecule?
**A.** 0.021 ± 0.005 %IA/g

**Q.** What about the Pancreas uptake (LNCaP tumor-bearing mice [3]; 4 h post-injection) of the same molecule?
**A.** 0.034 ± 0.004 %IA/g

**Q.** What about the Salivary glands uptake (LNCaP tumor-bearing mice [3]; 4 h post-injection) of the same molecule?
**A.** 0.05±0.01 %IA/g

**Q.** And the Spleen uptake (LNCaP tumor-bearing mice [3]; 4 h post-injection)?
**A.** 0.089 ± 0.020 %IA/g

**Q.** What about the Stomach uptake (LNCaP tumor-bearing mice [3]; 4 h post-injection) of the same molecule?
**A.** 0.049 ± 0.021 %IA/g

**Q.** And the Testes uptake (LNCaP tumor-bearing mice [3]; 4 h post-injection)?
**A.** 0.056 ± 0.005 %IA/g

**Q.** What about the Thyroid uptake (LNCaP tumor-bearing mice [3]; 4 h post-injection) of the same molecule?
**A.** 0.066 ± 0.008 %IA/g

**Q.** And the Tumor uptake (LNCaP tumor-bearing mice [3]; 4 h post-injection)?
**A.** 20.9±2.99 %IA/g

**Q.** And the “Tumor:Muscle uptake ratio” value (LNCaP tumor-bearing mice [3]; 4 h post-injection)?
**A.** 1028 ± 227

**Q.** And the “Tumor:Salivary gland uptake ratio” value (LNCaP tumor-bearing mice [3]; 4 h post-injection)?
**A.** 415 ± 60.5

**Q.** And the Kidneys uptake (LNCaP tumor-bearing mice [3]; [5])?
**A.** 1.666 ± 0.378 %IA/g

**Q.** What about the Salivary glands uptake (LNCaP tumor-bearing mice [3]; [5]) of the same molecule?
**A.** 0.051 ± 0.010 %IA/g

**Q.** What about the Tumor uptake (LNCaP tumor-bearing mice [3]; [5]) of the same molecule?
**A.** 20.90 ± 2.988 %IA/g
